Like-named read-outs stand apart in the source and are kept apart here.
Key:
[1] = test system: human foreskin fibroblasts (HF); assay: effect on cells: appearance of fixed, crystal violet-stained monolayer (HF); format: cell-based; design: key: N, no effect on the appearance of the alcohol-fixed and crystal violet-stained cell monolayer at the indicated compound concentration.; L, lightening of the intensity of staining (compared to controls) of the alcohol-fixed and crystal violet-stained cell monolayer at the indicated compound concentration but not at half that concentration
CMV (Ad169) [2] = assay: viral yield reduction (growth inhibition) assay, CMV; format: cell-based, Cytomegalovirus; settings: for Antiviral IC50 µg/ml CMV /HF: Table 1a
Procedure: (§1) The compounds were tested for biological activity using viral yield reduction assays. Host cells (indicated as HF for human foreskin fibroblasts and as vero, the commonly used African green monkey cell line, in Tables 1 and 1a) were plated at 4 x 10^4 cells/well in cell growth medium with 2% fetal bovine serum or 2% calf serum in 96-well plates (0.1 ml/well) and incubated overnight. The compounds were added to individual wells to give final concentrations ranging from 50 to 0.1 µg/ml in two-fold concentration steps. After 1 hour, virus was added, and the incubation was continued for 4 days with RSV or CMV and for 2 days with HSV. At the end of the experiment, the amount of virus growth was quantitated and the yield reduction at various concentrations of compound was calculated. This allows estimation of the concentration of compound giving 50% reduction in virus growth (IC50).

RSV (A2) = assay: viral yield reduction (growth inhibition) assay, RSV; format: cell-based, Respiratory Syncitial Virus; settings: for Antiviral IC50 µg/ml RSV/ Vero: format not given; for IC50 µG/mL IN GROWTH […]/ VERO: vero host cells
Procedure: as §1

HSV1 (Patton) [3] = assay: viral yield reduction (growth inhibition) assay, HSV; format: cell-based, Herpes Simplex Virus; settings: for Antiviral IC50 µg/ml HSV Vero: Table 1a, format not given
Procedure: as §1

vero cells = assay: effect on cells: appearance of fixed, crystal violet-stained monolayer (vero); format: cell-based, African green monkey; design: key: N, no effect on the appearance of the alcohol-fixed and crystal violet-stained cell monolayer at the indicated compound concentration.; L, lightening of the intensity of staining (compared to controls) of the alcohol-fixed and crystal violet-stained cell monolayer at the indicated compound concentration but not at half that concentration; settings: at 75 µg/ml
RSV A2 = format: in vivo, cotton rats
CMV (Ad169) [4] = assay: viral plaque reduction assay, CMV; format: cell-based, Cytomegalovirus
HSV1 (Patton) [5] = assay: viral plaque reduction assay, HSV1; format: cell-based, Herpes Simplex Virus; settings: for IC50µG/mL IN PLAQUE ASSAY HSV/ VER O: HSV1 (Patton), vero host cells
RSV = assay: viral plaque reduction assay, RSV; format: cell-based, Respiratory Syncitial Virus
[6] = Table 1a, HF, yield reduction or plaque format not specified
[7] = EXPT 3, i.n. 30 mg/k d1,2,3, Lavage/CPE
[8] = EXPT 3, i.n. 30 mg/k d1,2,3, Lavage/Plaque
[9] = EXPT 3, i.n. 30 mg/k d1,2,3, Lung/Plaque
[10] = EXPT 3, i.n. d0 15 mg/k, d1 30 mg/k, Lavage/CPE
[11] = EXPT 3, i.n. d0 15 mg/k, d1 30 mg/k, Lavage/Plaque
[12] = EXPT 3, i.n. d0 15 mg/k, d1 30 mg/k, Lung/Plaque
[13] = EXPT 3, i.n. d0 15 mg/k, d1,2,3 30 mg/k, Lavage/CPE
[14] = EXPT 3, i.n. d0 15 mg/k, d1,2,3 30 mg/k, Lavage/Plaque
[15] = EXPT 3, i.n. d0 15 mg/k, d1,2,3 30 mg/k, Lung/Plaque
[16] = EXPT 3, i.p. 30 mg/k d1,2,3, Lavage/CPE
[17] = EXPT 3, i.p. 30 mg/k d1,2,3, Lavage/Plaque
[18] = EXPT 3, i.p. 30 mg/k d1,2,3, Lung/Plaque

## 1,2',1'',1'''-[(2,2'-disulfo[1,1'-biphenyl]-4,4'-diyl)-bis[imino-1,3,5-triazine-6,2,4-triylbis(imino-3,1-phenylenesulfonyl)]tetrakis[3,5-piperidinedicarboxylic acid [Example 54]
[1]; at 75 µg/ml
  Effect on cells @ µg/ml indicated HF: N@75
CMV (Ad169) [2]; HF, format not given
  Antiviral IC50 µg/ml CMV /HF: >50 µg/mL
RSV (A2); [6]
  Antiviral IC50 µg/ml RSV/ HF: 35 µg/mL
RSV (A2); Table 1a
  Antiviral IC50 µg/ml RSV/ Vero: >50 µg/mL

## 4',4-Bis-{4,6-bis-[3-(3,5-dicarbamoyl-piperidine-1-sulfonyl)-phenylamino]-[1,3,5]triazin-2-ylamino}-biphenyl-2,2'disulfonic acid, disodium salt [Example 53]
HSV1 (Patton) [3]; HSV1 (Patton)
  Antiviral IC50 µg/ml HSV Vero: >50 µg/mL
Vero cells
  Effect on cells @ µg/ml indicated Vero: N@75
[1]; at 75 µg/ml
  Effect on cells @ µg/ml indicated HF: N@75
RSV (A2); [6]
  Antiviral IC50 µg/ml RSV/ HF: 2 µg/mL
RSV (A2); Table 1a
  Antiviral IC50 µg/ml RSV/ Vero: 7 µg/mL

## 4',4-Bis-{4,6-bis-[3-(bis-carbamoylmethyl-1-sulfamoyl)-phenylamino]-[1,3,5]triazin-2-ylamino}-biphenyl-2,2'-disulfonic acid, disodium salt [Example 43]
HSV1 (Patton) [3]; HSV1 (Patton)
  Antiviral IC50 µg/ml HSV Vero: 6 µg/mL
Vero cells
  Effect on cells @ µg/ml indicated Vero: N@75
[1]; at 75 µg/ml
  Effect on cells @ µg/ml indicated HF: N@75
CMV (Ad169) [2]; HF, format not given
  Antiviral IC50 µg/ml CMV /HF: 2.5 µg/mL
RSV (A2); [6]
  Antiviral IC50 µg/ml RSV/ HF: 0.1 µg/mL

## 4,4'-Bis-(4,6-bis-{3-[bis-(2-methylcarbamoyl-ethyl)-sulfamoyl]-phenylamino}-[1,3,5]triazin-2-ylamino)-biphenyl-2,2'-dicarboxylic acid, disodium salt [Example 35]
HSV1 (Patton) [3]; HSV1 (Patton)
  Antiviral IC50 µg/ml HSV Vero: >50 µg/mL
Vero cells
  Effect on cells @ µg/ml indicated Vero: N@75
CMV (Ad169) [2]; HF, format not given
  Antiviral IC50 µg/ml CMV /HF: >50 µg/mL
RSV (A2); [6]
  Antiviral IC50 µg/ml RSV/ HF: 6 µg/mL

## 4,4'-Bis-(4,6-bis{3-[bis-(2-carbamoyl-ethyl)-sulfamoyl]-phenylamino}- 1,3,5-triazin-2-ylamino]-biphenyl-2,2'-dicarboxylic acid, disodium salt [Example 30]
HSV1 (Patton) [3]; HSV1 (Patton)
  Antiviral IC50 µg/ml HSV Vero: >50 µg/mL
[1]; at 75 µg/ml
  Effect on cells @ µg/ml indicated HF: N@75
CMV (Ad169) [2]; HF, format not given
  Antiviral IC50 µg/ml CMV /HF: 40 µg/mL
RSV (A2); [6]
  Antiviral IC50 µg/ml RSV/ HF: 0.35 µg/mL

## 4,4'-Bis-[[4,6-bis-[[3-[[bis-[3-(methylamino)-3-oxopropyl]amino]sulfonyl]phenyl]amino]-1,3,5-triazin-2-yl]amino] [1,1'-biphenyl]-2,2'-disulfonic acid, disodium salt [Example 34]
HSV1 (Patton) [3]; HSV1 (Patton)
  Antiviral IC50 µg/ml HSV Vero: >50 µg/mL
Vero cells
  Effect on cells @ µg/ml indicated Vero: L@75
[1]; at 75 µg/ml
  Effect on cells @ µg/ml indicated HF: N@75
CMV (Ad169) [2]; HF, format not given
  Antiviral IC50 µg/ml CMV /HF: >50 µg/mL
RSV (A2); [6]
  Antiviral IC50 µg/ml RSV/ HF: 1.2 µg/mL

## 4,4'-Bis[4,6-di[3-aminophenyl-N,N-bis(2-carbamoyl-ethyl)sulfonylimino]-1,3,5-triazin-2-ylamino]-biphenyl-2,2'-disulfonic acid, disodium salt [Example 4]
RSV A2; [7]
  Fold red. log10: 2.51 log10
  Mean titer log10/g lung: 1.67 log10/g lung
RSV A2; [8]
  Fold red. log10: 1.2 log10
  Mean titer log10/g lung: 3.09 log10/g lung
RSV A2; [9]
  Fold red. log10: 1.18 log10
  Mean titer log10/g lung: 3.37 log10/g lung
RSV A2; [10]
  Fold red. log10: 2.52 log10
  Mean titer log10/g lung: 1.66 log10/g lung
RSV A2; [11]
  Fold red. log10: 2.03 log10
  Mean titer log10/g lung: 2.26 log10/g lung
RSV A2; [12]
  Fold red. log10: 2.23 log10
  Mean titer log10/g lung: 2.32 log10/g lung
RSV A2; [13]
  Fold red. log10: 2.13 log10
  Mean titer log10/g lung: 2.05 log10/g lung
RSV A2; [14]
  Fold red. log10: 2.04 log10
  Mean titer log10/g lung: 2.25 log10/g lung
RSV A2; [15]
  Fold red. log10: 2.3 log10
  Mean titer log10/g lung: 2.25 log10/g lung
RSV A2; [16]
  Fold red. log10: 0 log10
  Mean titer log10/g lung: 4.18 log10/g lung
RSV A2; [17]
  Fold red. log10: 0.09 log10
  Mean titer log10/g lung: 4.1 log10/g lung
RSV A2; [18]
  Fold red. log10: 0.26 log10
  Mean titer log10/g lung: 3.92 log10/g lung
RSV A2; cotton rats, summary of Table 3
  inhibition of RSV in vivo (summary in words): inhibit RSV in vivo
RSV A2; rat, in vivo
  Fold red. log10: 1.63 log10
  Mean titer log10/g lung: 2.05 log10/g lung
HSV1 (Patton) [3]; HSV1 (Patton), HF host cells
  IC50 µG/mL IN GROWTH […]/ HF: 20 µg/mL
HSV1 (Patton) [3]; HSV1 (Patton), vero host cells
  IC50 µG/mL IN GROWTH […]/ VERO: 35 µg/mL
CMV (Ad169) [4]; CMV (Ad169), HF host cells
  IC50µG/mL IN PLAQUE ASSAY CMV/ HF: > 30 µg/mL
CMV (Ad169) [4]; HCMV Ad169, HF, Pre
  IC50 (µG/ml) viral plaque formation: >30 µg/mL
HSV1 (Patton) [5]
  IC50µG/mL IN PLAQUE ASSAY HSV/ VER O: 35 µg/mL
HSV1 (Patton) [5]; HSV1 Patton, VERO, Pre
  IC50 (µG/ml) viral plaque formation: 35 µg/mL
CMV (Ad169) [2]; HF host cells
  IC50 µG/mL IN GROWTH […]/ HF: 35 µg/mL
RSV; RSV 2B, VERO, Post 2 hours
  IC50 (µG/ml) viral plaque formation: 0.08 µg/mL
RSV; RSV 3A, VERO, Post 2 hours
  IC50 (µG/ml) viral plaque formation: 0.15 µg/mL
RSV; RSV 9320, VERO, Post 2 hours
  IC50 (µG/ml) viral plaque formation: 0.18 µg/mL
RSV; RSV 18736, VERO, Post 2 hours
  IC50 (µG/ml) viral plaque formation: 0.06 µg/mL
RSV; RSV (A2), vero host cells
  IC50µG/mL IN PLAQUE ASSAY RSV/ VERO: 0.1 µg/mL
RSV; RSV A2, VERO, Post 2 hours
  IC50 (µG/ml) viral plaque formation: 0.28 µg/mL
RSV; RSV A2, VERO, Pre (pretreatment)
  IC50 (µG/ml) viral plaque formation: 0.1 µg/mL
RSV; RSV LONG, VERO, Post 2 hours
  IC50 (µG/ml) viral plaque formation: 0.21 µg/mL
RSV; RSV RSS2, VERO, Post 2 hours
  IC50 (µG/ml) viral plaque formation: 0.20 µg/mL
RSV; all RSV strains tested
  active against all RSV strains tested (plaque assays): 0.1 to 0.7 µg/mL
RSV (A2); HF host cells
  IC50 µG/mL IN GROWTH […]/ HF: 0.1 µg/mL
RSV (A2)
  IC50 µG/mL IN GROWTH […]/ VERO: 0.1 µg/mL

## 4,4'Bis-(4,6-bis-{3-[bis-(2-hydroxy-propyl)-sulfamoyl]-phenylamino}-[1,3,5]triazin-2-ylamino)biphenyl-2,2'-disulfonic acid, disodium salt [Example 40]
HSV1 (Patton) [3]; HSV1 (Patton)
  Antiviral IC50 µg/ml HSV Vero: 20 µg/mL
Vero cells
  Effect on cells @ µg/ml indicated Vero: N@75
[1]; at 75 µg/ml
  Effect on cells @ µg/ml indicated HF: N@75
CMV (Ad169) [2]; HF, format not given
  Antiviral IC50 µg/ml CMV /HF: 4 µg/mL
RSV (A2); [6]
  Antiviral IC50 µg/ml RSV/ HF: 0.2 µg/mL

## 4,4'Bis[4,6-di[3-aminophenyl-N,N-bis(2-hydroxyethyl)sulfonylimino]-1,3,5-triazin-2-ylamino]-stilbene-2,2'-disulfonic acid, disodium salt [Example 5]
HSV1 (Patton) [5]
  IC50µG/mL IN PLAQUE ASSAY HSV/ VER O: 8 µg/mL
RSV (A2)
  IC50 µG/mL IN GROWTH […]/ VERO: 0.4 µg/mL

## O=C([O-])c1cc(Nc2nc(Nc3cccc(S(=O)(=O)N(CCO)CCO)c3)nc(Nc3cccc(S(=O)(=O)N(CCO)CCO)c3)n2)ccc1-c1ccc(Nc2nc(Nc3cccc(S(=O)(=O)N(CCO)CCO)c3)nc(Nc3cccc(S(=O)(=O)N(CCO)CCO)c3)n2)cc1C(=O)[O-].[Na+].[Na+] [Example 57, 4,4'-Bis-(4,6-bis-{3-[bis-(2-hydroxyethyl)-sulfamoyl]-phenylamino}-[1,3,5]-triazin-2-ylamino)biphenyl-2,2'dicarboxylic acid, disodium salt]
HSV1 (Patton) [3]; Human alphaherpesvirus 1, Vero, read-out: Antiviral IC50 µg/ml HSV Vero
  IC50: 30 µg/mL
Vero cells
  Effect on cells @ µg/ml indicated Vero: N@75
CMV (Ad169) [2]; Human betaherpesvirus 5, Table 1a, HF, format not given, read-out: Antiviral IC50 µg/ml CMV /HF
  IC50: 4 µg/mL
RSV (A2); human respiratory syncytial virus, Table 1a, HF, yield reduction or plaque format not specified, read-out: Antiviral IC50 µg/ml RSV/ HF
  IC50: 1.5 µg/mL

## (E)-2,2'-(1,2-Ethenediyl)bis[5-[[4,6-bis[[3-[[3,5-bis(aminocarbonyl)-1-piperedinyl]sulfonyl]phenyl]amino]-1,3,5-triazin-2-yl]benzenesulfonic acid], disodium salt [Example 52]
[1]; at 37 µg/ml
  Effect on cells @ µg/ml indicated HF: L@37
RSV (A2); [6]
  Antiviral IC50 µg/ml RSV/ HF: 1.5 µg/mL
RSV (A2); Table 1a
  Antiviral IC50 µg/ml RSV/ Vero: 1.5 µg/mL

From EP0795549A1, “Bis-aryloxy(amino)-triazinyl-oxy(amino)aryl derivatives, their preparation and their use as antiviral agents” (American Cyanamid Company, priority 1996, dated 1997)
